Test results from publication PMC8591608, “DNDI-6148: A Novel Benzoxaborole Preclinical Candidate for the Treatment of Visceral Leishmaniasis” (Journal of Medicinal Chemistry, 2021).
Like-named read-outs stand apart in the source and are kept apart here.

How the values were obtained:
[1] = MRC5 cytotoxicity assay; type: cell-based; settings: human, MRC5SV2 cells (human embryonic lung fibroblasts), geometric mean of at least two independent tests
Experimental: (§1) Primary peritoneal mouse macrophages (PMM) were collected two days after peritoneal stimulation with a 2% potato starch suspension. MRC5SV2 cells (diploid human embryonic lung fibroblasts) were cultured in minimal essential medium (MEM) containing Earle’s salts, supplemented with L-glutamine, NaHCO3, and 5% inactivated fetal calf serum. All cultures and assays were conducted at 37 °C under an atmosphere of 5% CO2.
(§2) Assays were performed in sterile 96-well microtiter plates, each well containing 10 μL of the compound dilution and 190 μL of MRC5SV2 or PMM inoculum (3 × 10^4 cells/mL). Cell growth was compared to untreated controls (100% growth) and assay-media controls (0% growth). After three-day incubation, cell viability was assessed fluorometrically by adding resazurin (50 μL/well of a stock solution in phosphate buffer (50 μg/mL)), incubating for 4 h and measuring fluorescence (λex 550 nm, λem 590 nm). The results were expressed as a percentage reduction in cell growth compared to untreated control wells. […] Tamoxifen was included as the reference drug.

[2] = Liver microsome stability, hamster; type: in vitro ADME; settings: golden (Syrian), hamster liver microsomes
Experimental: (§3) Tests were performed by WuXi AppTec, China. Test compounds (at 1 μM) or positive controls (testosterone, propafenone, and diclofenac) were incubated at 37 °C with liver microsomes from Balb/c mouse, golden (Syrian) hamster, Sprague-Dawley rat, Beagle dog, or human in the presence of a NADPH regenerating system and phosphate buffer (100 mM, pH 7.4) at 0.4 or 0.8 mg/mL microsomal protein. The samples were removed at time intervals from 0 to 60, 90, or 120 min and immediately mixed with cold methanol supplemented or not with acid (3% formic acid) and centrifuged prior to analysis by LC-MS/MS using tolbutamide or propranolol as internal standards.

[3] = Liver microsome stability, human; type: in vitro ADME; settings: human liver microsomes
Experimental: as §3

[4] = PMM cytotoxicity assay; type: cell-based; settings: mouse, primary peritoneal mouse macrophages (PMM), geometric mean of at least two independent tests
Experimental: as §1, §2

[5] = system: L. infantum; test: Intramacrophage L. infantum assay; type: cell-based; settings: Leishmania infantum, geometric mean of at least two independent tests
Experimental: L. infantum (MHOM/MA/67/ITMAP263) and L. donovani (MHOM/ET/67/L82) were maintained in the golden (Syrian) hamster (Mesocricetus auratus). Ex vivo amastigotes were collected from the spleen of an infected donor hamster using two centrifugation purification steps: 230g for 10 min, keeping the supernatant layer, and 4100g for 30 min, keeping the pellet. The spleen parasite burden was assessed using the Stauber technique.[25] For in vitro assays, the inoculum was prepared in RPMI-1640 medium, supplemented with 200 mM L-glutamine, 16.5 mM NaHCO3, and 5% inactivated fetal calf serum. For the in vivo model, an infection inoculum containing 2 × 10^7 amastigotes/100 μL was prepared in phosphate-buffered saline (PBS).
The assay was performed in sterile 96-well microtiter plates, each well containing 10 μL of the compound dilution and 190 μL of the PMM/amastigote inoculum (3 × 10^4 cells/4.5 × 10^5 parasites per well). Parasite multiplication was compared to untreated infected controls (100% growth) and uninfected controls (0% growth). After five-day incubation, total parasite burdens were microscopically assessed after staining the cells with a 10% Giemsa solution. The results were expressed as a percentage reduction in parasite burden compared to untreated control wells. EC50 values were determined using an extended dose range (2-fold compound dilutions, 8-point concentration curve). Miltefosine was used as the reference drug.[26] For selected compounds, this assay format was also run using the L. donovani inoculum.

[6] = pH 7.4, Table 4, read-out: HamLM Clint
[7] = pH 7.4, Table 4, read-out: HLM Clint
[8] = Table 4, read-out: intramacrophage L. infantum EC50
[9] = Table 5, read-out: intramacrophage L. infantum amastigote EC50
[10] = pH 7.4, Table 5, read-out: HamLM Clint
[11] = pH 7.4, Table 5, read-out: HLM Clint

Row | SMILES | CC50 at 3 days ([1]; Table 4) [µM] | microsomal CLint at 2 h, 1 µM [2, 6] [µL/min/mg] | microsomal CLint at 1 μM [3, 7] [µL/min/mg] | CC50 at 3 days ([4]; Table 4) [µM] | EC50 [5, 8] [µM] | CC50 at 72 h ([1]; Table 4) [µM] | EC50 [5, 9] [µM] | other results
1 | O=C(Nc1ccc2c(c1)B(O)OC2)c1cn(C(F)(F)F)nc1C(F)(F)F [Compound 4, N-(1-Hydroxy-1,3-dihydrobenzo[c][1,2]oxaborol-6-yl)-1,3-bis(trifluoromethyl)-1H-pyrazole-4-carboxamide] | > 64 | 1040 | < 11.9 | > 64 | 2.1 |  |  | 
2 | O=C(Nc1ccc2c(c1)B(O)OC2)c1cn(C2CCOCC2)nc1C(F)(F)F [Compound 10, N-(1-Hydroxy-1,3-dihydrobenzo[c][1,2]oxaborol-6-yl)-1-(tetrahydro-2H-pyran-4-yl)-3-(trifluoromethyl)-1H-pyrazole-4-carboxamide] | > 64 | 109 | < 11.9 | > 64 | 3 |  |  | 
3 | Cc1cccc(-n2ncc(C(=O)Nc3ccc4c(c3)B(O)OC4)c2C)n1 [Compound 18, N-(1-Hydroxy-1,3-dihydrobenzo[c][1,2]oxaborol-6-yl)-5-methyl-1-(6-methylpyridin-2-yl)-1H-pyrazole-4-carboxamide] |  | 44 | < 11.9 | > 64 | 1.6 | 41 |  | 
4 | Cc1c(C(=O)Nc2ccc3c(c2)B(O)OC3)nnn1-c1cccnc1 [Compound 27, N-(1-Hydroxy-1,3-dihydrobenzo[c][1,2]oxaborol-6-yl)-5-methyl-1-(pyridin-3-yl)-1H-1,2,3-triazole-4-carboxamide] |  |  |  |  |  |  | 38 | CC50 at 3 days ([1]; Table 5): > 64 µM; CC50 at 3 days ([4]; Table 5): > 64 µM
5 | O=C(Nc1ccc2c(c1)B(O)OC2)c1cn(CCC(F)(F)F)nc1C(F)(F)F [Compound 6, N-(1-Hydroxy-1,3-dihydrobenzo[c][1,2]oxaborol-6-yl)-3-(trifluoromethyl)-1-(3,3,3-trifluoropropyl)-1H-pyrazole-4-carboxamide] |  | 114 | < 11.9 |  | 1.3 | 49 |  | CC50 at 72 h ([4]; Table 4): 38 µM
6 | Cn1nc(C(=O)Nc2ccc3c(c2)B(O)OC3)cc1-c1ccccn1 [Compound 21, N-(1-Hydroxy-1,3-dihydrobenzo[c][1,2]oxaborol-6-yl)-1-methyl-5-(pyridin-2-yl)-1H-pyrazole-3-carboxamide] |  | 106 |  | > 64 | 1.8 | 54 |  | microsomal CLint at 2 h, 1 µM [3, 7]: 14 µL/min/mg
7 | Cn1nc(-c2ccccn2)cc1C(=O)Nc1ccc2c(c1)B(O)OC2 [Compound 20, N-(1-Hydroxy-1,3-dihydrobenzo[c][1,2]oxaborol-6-yl)-1-methyl-3-(pyridin-2-yl)-1H-pyrazole-5-carboxamide] | > 64 | 121 |  | > 64 | 34 |  |  | microsomal CLint at 2 h, 1 µM [3, 7]: 18 µL/min/mg
8 | Cc1cccc(-n2nnc(C(=O)Nc3ccc4c(c3)B(O)OC4)c2C)n1 [Compound 26, N-(1-Hydroxy-1,3-dihydrobenzo[c][1,2]oxaborol-6-yl)-5-methyl-1-(6-methylpyridin-2-yl)-1H-1,2,3-triazole-4-carboxamide] |  |  |  |  |  |  | 6.4 | CC50 at 3 days ([1]; Table 5): > 64 µM; CC50 at 3 days ([4]; Table 5): > 64 µM
9 | Cc1nn(C2CCC2)cc1C(=O)Nc1ccc2c(c1)B(O)OC2 [Compound 8, Cyclobutyl-N-(1-hydroxy-1,3-dihydrobenzo[c][1,2]oxaborol-6-yl)-3-methyl-1H-pyrazole-4-carboxamide] | > 64 | 57 | < 11.9 | > 64 | 16 |  |  | 
10 | COc1cccc(-n2nnc(C(=O)Nc3ccc4c(c3)B(O)OC4)c2C)n1 [Compound 25, N-(1-Hydroxy-1,3-dihydrobenzo[c][1,2]oxaborol-6-yl)-1-(6-methoxypyridin-2-yl)-5-methyl-1H-1,2,3-triazole-4-carboxamide] |  |  |  |  |  |  | 0.8 | CC50 at 3 days ([1]; Table 5): > 64 µM; microsomal CLint at 2 h, 1 µM [2, 10]: 40 µL/min/mg; microsomal CLint at 2 h, 1 µM [3, 11]: 23 µL/min/mg; CC50 at 72 h ([4]; Table 5): 32 µM
11 | Cc1c(C(=O)Nc2ccc3c(c2)B(O)OC3)cnn1CCC(F)(F)F [Compound 15, N-(1-Hydroxy-1,3-dihydrobenzo[c][1,2]oxaborol-6-yl)-5-methyl-1-(3,3,3-trifluoropropyl)-1H-pyrazole-4-carboxamide] | > 64 | 48 | < 11.9 | > 64 | 14 |  |  | 
12 | COc1ccccc1-n1cc(C(=O)Nc2ccc3c(c2)B(O)OC3)c(C)n1 [Compound 14, N-(1-Hydroxy-1,3-dihydro-2,1-benzoxaborol-6-yl)-1-(2-methoxyphenyl)-3-methyl-1H-pyrazole-4-carboxamide] |  |  |  | > 64 | 2.2 | 15.7 |  | 
13 | Cc1nn(CCC(F)(F)F)cc1C(=O)Nc1ccc2c(c1)B(O)OC2 [Compound 7, N-(1-Hydroxy-1,3-dihydrobenzo[c][1,2]oxaborol-6-yl)-3-methyl-1-(3,3,3-trifluoropropyl)-1H-pyrazole-4-carboxamide] | > 64 |  |  | > 64 | 5.7 |  |  | 
14 | Cc1oc(C(=O)Nc2ccc3c(c2)B(O)OC3)cc1-c1ccccn1 [Compound 29, N-(1-Hydroxy-1,3-dihydrobenzo[c][1,2]oxaborol-6-yl)-5-methyl-4-(pyridin-2-yl)furan-2-carboxamide] |  |  |  |  |  |  | 1.7 | CC50 at 72 h ([1]; Table 5): 45 µM; microsomal CLint at 2 h, 1 µM [2, 10]: 82 µL/min/mg; microsomal CLint at 1 μM [3, 11]: < 11.9 µL/min/mg; CC50 at 72 h ([4]; Table 5): 29 µM
15 | Cc1nn(-c2ccccn2)cc1C(=O)Nc1ccc2c(c1)B(O)OC2 [Compound 11, N-(1-Hydroxy-1,3-dihydro-2,1-benzoxaborol-6-yl)-3-methyl-1-(pyridine-2-yl)-1H-pyrazole-4-carboxamide] | > 64 |  | < 11.9 | > 64 | 5.7 |  |  | 
16 | Cc1c(-c2ccccn2)csc1C(=O)Nc1ccc2c(c1)B(O)OC2 [Compound 30, N-(1-Hydroxy-1,3-dihydrobenzo[c][1,2]oxaborol-6-yl)-3-methyl-4-(pyridin-2-yl)thiophene-2-carboxamide] |  |  |  |  |  |  | 0.6 | CC50 at 72 h ([1]; Table 5): 2.3 µM; microsomal CLint at 2 h, 1 µM [2, 10]: 88 µL/min/mg; microsomal CLint at 1 μM [3, 11]: < 11.9 µL/min/mg; CC50 at 72 h ([4]; Table 5): 32 µM
17 | O=C(Nc1ccc2c(c1)B(O)OC2)c1cn(C2CCC2)nc1C(F)(F)F [Compound 9, 1-Cyclobutyl-N-(1-hydroxy-1,3-dihydrobenzo[c][1,2]oxaborol-6-yl)-3-(trifluoromethyl)-1H-pyrazole-4-carboxamide] |  | 337 | < 11.9 |  | 0.59 | 26 |  | CC50 at 72 h ([4]; Table 4): 32 µM
18 | COc1cccc(-n2ncc(C(=O)Nc3ccc4c(c3)B(O)OC4)c2C)n1 [Compound 17, N-(1-Hydroxy-1,3-dihydrobenzo[c][1,2]oxaborol-6-yl)-1-(6-methoxypyridin-2-yl)-5-methyl-1H-pyrazole-4-carboxamide] |  | 40 | < 11.9 | > 64 | 1.4 | 40 |  | 
19 | Cc1c(C(=O)Nc2ccc3c(c2)B(O)OC3)nnn1-c1ccccc1 [Compound 24, N-(1-Hydroxy-1,3-dihydrobenzo[c][1,2]oxaborol-6-yl)-5-methyl-1-phenyl-1H-1,2,3-triazole-4-carboxamide] |  |  |  |  |  |  | 37 | CC50 at 3 days ([1]; Table 5): > 64 µM; microsomal CLint at 1 μM [3, 11]: < 11.9 µL/min/mg; CC50 at 3 days ([4]; Table 5): > 64 µM
